Reference: PubChem BioAssay (NCI)
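All cell lines were grown in 96-well plates and treated with compound for 48 hours. GI50 = concentration required for 50% inhibition of growth. Definition used: TGI = concentration required for complete inhibition of growth.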

What was measured:
Assay in all cases: NCI-60 cell line screen, 48 h
HT29 colon = system: HT29 colon
NCI-H522 lung = system: NCI-H522 lung
RPMI-8226 leukemia = system: RPMI-8226 leukemia
UACC-62 melanoma = system: UACC-62 melanoma
IGROV1 ovarian = system: IGROV1 ovarian
CAKI-1 renal = system: CAKI-1 renal
OVCAR-3 ovarian = system: OVCAR-3 ovarian
MDA-MB-231 breast = system: MDA-MB-231 breast
SF-268 CNS = system: SF-268 CNS
HL-60(TB) leukemia = system: HL-60(TB) leukemia

| Structure (SMILES) | GI50 (HT29 colon) [nM] | TGI (HT29 colon) [µM] | GI50 (NCI-H522 lung) [nM] | TGI (NCI-H522 lung) [µM] | GI50 (RPMI-8226 leukemia) [nM] | TGI (RPMI-8226 leukemia) [µM] | GI50 (UACC-62 melanoma) [nM] | TGI (UACC-62 melanoma) [µM] | GI50 (IGROV1 ovarian) [nM] | TGI (IGROV1 ovarian) [µM] | GI50 (CAKI-1 renal) [nM] | TGI (CAKI-1 renal) [µM] | GI50 (OVCAR-3 ovarian) [nM] | TGI (OVCAR-3 ovarian) [µM] | GI50 (MDA-MB-231 breast) [nM] | TGI (MDA-MB-231 breast) [µM] | GI50 (SF-268 CNS) [nM] | TGI (SF-268 CNS) [µM] | GI50 (HL-60(TB) leukemia) [nM] | TGI (HL-60(TB) leukemia) [µM] |
| --- | --- | --- | --- | --- | --- | --- | --- | --- | --- | --- | --- | --- | --- | --- | --- | --- | --- | --- | --- | --- |
| COc1ccc(OC)c(-c2nc3sccn3c2/C=C2/C(=O)Nc3ccc(Cl)cc32)c1 | 25700 | 67.3 | 21500 | 51.6 | 26900 | 94.8 | 11800 | 26.6 | 33500 | > 100 | 30100 | > 100 | 21700 | 55.2 | 20300 | 55.3 | 30600 | > 100 | 31200 | 76 |
| Nc1ncnc2c1c(C(F)(F)F)cn2[C@@H]1O[C@H](CO)[C@@H](O)[C@H]1O |  |  | 319 | 3.15 | 151 | 1.82 | 60.1 | 1.78 | 619 | > 100 | 490 | > 100 | 398 | > 100 | 652 | > 100 | 1190 | > 26.3 | 212 | 0.492 |
| CC(=O)Oc1ccc(OC(C)=O)c2ccccc12 | 34600 | > 100 | 2040 | 5.41 | 3850 | 10.2 | 6940 | 19.9 | 3200 | 11.5 | 6790 | 23.3 | 3550 | 12.9 | 1170 | 2.48 | 10500 | 22.3 | 2720 | 7.87 |
| CCN(CC)CCN1C(=O)c2c(c(C)c3c(oc4cc(O)ccc43)c2C)C1=O | 2140 | 5.41 | 2110 | 4.71 | 1770 | 4.76 | 1580 | 2.96 | 1600 | 3.17 | 1660 | 3.06 | 1780 | 3.34 | 1740 | 3.36 | 1740 | 3.78 |  |  |
| CC1(C)CCC[C@]23C(=O)O[C@](O)(C(=O)C4=C[C@@](C)(/C=C/CCCc5ccc6ccc7cccc8ccc5c6c78)CC[C@@]42O)[C@@H]13 | 235 | 0.603 | 200 | 0.475 | 196 | 0.571 | 176 | 0.343 | 175 | 0.329 | 183 | 0.364 | 174 | 0.336 | 197 | 0.431 | 208 | 0.498 | 248 | 0.649 |
| Cc1ccc2c(c1)C(=O)c1c-2n(CCCN)c(=O)c2cc([N+](=O)[O-])ccc12 |  |  | 200 | 0.985 | 19.9 | 0.226 | 522 | 1.11 | 176 | 0.985 | 71.6 | 0.419 | 521 | 1.32 | 293 | 0.827 | 37.3 | 0.555 | 28.5 | 0.327 |
| COc1ccc(/C=C/c2c(C(=O)/C=C/c3ccc(Cl)cc3)c(C)nc3ccccc23)cc1 | 1610 | 6.05 | 1590 | 4.62 | 1910 | 6.77 | 1590 | 3.28 | 663 | 2.54 | 1140 | 2.62 | 1620 | 3.19 | 2380 | 7.82 | 1980 | 4.56 | 2150 | 5.62 |
| CN(C)CCCNc1nn2c(=O)c3ccccc3nc2c2ccccc12 | 3460 | 14.7 | 2140 | 24 | 11900 | 33.7 |  |  | 6190 | 47.8 | 4490 | 25.3 | 10500 | 26.4 | 8020 | 28.1 | 7250 | 37.9 | 18100 | 72.7 |
| O=P(Oc1ccc(Cl)cc1)(Oc1ccc(Cl)cc1)N1CC1 |  | > 10 |  |  |  | > 10 |  | > 10 |  |  |  |  |  | > 10 |  | > 10 |  | > 10 |  | > 10 |
| S=c1nc(-c2nc(=S)[nH]c3c2CCCCCCCCCC3)c2c([nH]1)CCCCCCCCCC2 |  | > 100 |  | > 100 |  |  |  | > 100 |  | > 100 |  | > 100 |  | > 100 |  | > 100 |  | > 100 |  | > 100 |
| O=c1[nH]cc(CS(=O)(=O)Cc2c[nH]c(=O)[nH]c2=O)c(=O)[nH]1 |  | > 100 |  | > 100 |  | > 100 |  | > 100 |  | > 100 |  | > 100 |  |  |  | > 100 |  | > 100 |  |  |
| O=C(c1ccccc1)C1C(C(=O)c2ccccc2)N1Cc1ccccc1 (stereo unspecified) |  | > 100 |  | 74.6 |  | > 100 |  | 70.8 |  | > 100 |  | > 100 |  | 99.2 |  | > 100 |  | > 100 |  |  |
| O=C1c2ccccc2C(=O)c2c1ccc(C(Br)Br)c2[N+](=O)[O-] | 1720 | 3.24 | 1840 | 3.46 |  |  | 1310 | 3.1 | 1150 | 2.87 |  |  | 1630 | 3.04 | 1550 | 3.13 | 1570 | 3.17 | 1870 | 4.22 |
| C=C(CN1CCN(c2ccccc2OC)CC1)c1ccc(C(=O)Nc2ccccc2N)cc1 |  |  |  |  | 5110 | > 50 | 1180 | 6.92 | 9540 | 30.6 | 3860 | 14.3 | 5640 | 19.7 | 315 | 4.4 | 12200 | 36 | 1810 | > 50 |
| S=c1nc[nH]c2c1ncn2Cc1ccco1 |  | > 100 |  | > 100 |  | > 100 |  | > 100 |  | > 100 |  | > 100 |  | > 100 |  | > 100 |  | > 100 |  |  |
